We go through 39 substances from patent publication US20200157563A1, “METHODS OF PRODUCING HUMAN CANCER CELL MODELS AND METHODS OF USE” (The Broad Institute, Inc., priority 2017, published 2020).

“And” between values parts separate entries of the source, which are not always exact repeats. Equal entries are not always repeated.

The first data set deals with TERT promoter or exon 1. As to the kind of experiment: Efficiency of tested Cas9 guide sequences (indel formation after RNP delivery). The format is cell-based, human. The settings on record: 3 days post-editing; Cas9 guide targeting TERT promoter or exon 1; replicates 1 and 2 listed separately. Here is the method:
Guide sequences for all genes were determined by empirically testing multiple guides per gene for cutting efficiency (on the extreme end, we tested around 40 Cas9 guide sequences for TERT before settling on one that works).
Applicants also determined guide RNAs for introducing indels at the TERT gene (FIG. 12).
Mutations were first engineered into CDKN2A (‘C’), BRAF (‘B’), and TERT (‘T’) (FIGS. 19A-19G). Lesions in these three genes happen early in melanoma pathogenesis and are exceptionally common, co-occurring events (Akbani et al. Cell 161:1681-1696 (2015)) that have been hypothesized to suffice for malignant transformation (Shain et al. Nat Rev Cancer 16:345-358 (2016); Shain et al. N Engl J Med 373:1926-1936 (2015)). After electroporation of Cas9 ribonucleoprotein complex (RNP) (Rimm et al. Am J Pathol 154:325-329 (1999)) targeting CDKN2A exon 2, the only exon shared by both p16 and p14 protein products, small insertions and deletions (‘indels’) in the gene underwent natural positive selection during cell culture from a 90-95% allele frequency at day three to nearly 100% by day 42 (FIG. 19A). Into these CDKN2A knockout (‘C’) melanocytes, Applicants next introduced the BRAF V600E mutation by co-delivering Cas9 RNP targeting BRAF exon 15 together with a homologous DNA donor encoding the V600E mutation. Recombinant adeno-associated virus (rAAV) was used to deliver the DNA donor (Rimm et al. Am J Pathol 154:325-329 (1999)) in order to increase the low editing efficiency over plasmid or single-stranded oligodeoxynucleotide donors (data not shown; Dever et al. Nature 539:384-389 (2016)). Over roughly 150 days in culture, the BRAF V600E allele increased from a frequency of 6% at day 3 to nearly 100% at day 155 (FIG. 19B). Finally, into these CDKN2A knockout, BRAF V600E mutant (‘CB’) melanocytes, Applicants introduced the −124C>T (also known as C228T) TERT promoter mutation by co-delivery of Cas9 RNP targeting TERT exon 1 together with a homologous DNA donor encoding TERT −124C>T. The −124C>T TERT promoter mutation allele shifted from a stable allele frequency of 3-5% over the first 30 days in culture to roughly 50% by day 75, and stayed at roughly 50% for more than 300 days of continuous culture (FIG. 19C; this 50% frequency is further discussed below). Engineering the TERT promoter mutation was the most technically difficult of these three mutations, and required testing forty different Cas9 guide sequences to identify a potent reagent for making double stranded breaks near the TERT promoter locus (Table 9), possibly due to the high G:C content or closed chromatin state at this locus (Yeh et al. Nat Commun 8:644 (2017)).
Cas9 protein, tracrRNA, and crRNAs (‘guides’, Table 20) were purchased and prepared according to manufacturer's instructions (IDT). To generate RNP complexes, 3-6 μg Cas9 and 45 pmol previously annealed crRNA:trRNA were incubated together for 10 minutes at 25° C. before delivery by electroporation. To target CDKN2A, two crRNAs were mixed at a molar ratio of 1:1 (22.5 pmol crRNA 1: 22.5 pmol crRNA 2) and incubated with 3 μg Cas9.
Electroporation was performed using the Lonza Nucleofector 4D System (program: EO-208) and P3 Primary Cell Nucleofector Kit (Lonza), according to manufacturer's instructions, with optional inclusion of 100 pmol electroporation enhancer (IDT 1075916). After electroporation, cells were incubated with 80 μL of warm media for 10 minutes at 37° C. to enhance recovery and were directly transferred into a tissue culture plate.
DNA was extracted using QuickExtract DNA Extraction Solution following recommended guidelines (Epicentre). Target genomic loci were amplified using gene-specific primers (Table 21) that included universal handles for later attachment of barcoded Illumina adaptors using an additional round of PCR. […]
As for “1 (guide TGGGAGGGCCCGGAGGGGGC; chemistry not given here) [compound 1]”, the “% Indel Post-Editing” value was 0.1686% and 0.2057%.

“2 (guide GTCCCCGGCCCAGCCCCCTC; chemistry not given here) [compound 2]”: the “% Indel Post-Editing” value is 0.29% and 0.6087%.

Consider “3 (guide TCCCCGGCCCAGCCCCCTCC; chemistry not given here) [compound 3]”, for which the “% Indel Post-Editing” value was 0.2836% and 0.473%.

In the case of “4 (guide GGGGCTGGGAGGGCCCGGAG; chemistry not given here) [compound 4]”, the “% Indel Post-Editing” value was 0.2787% and 0.05972%.

On to “5 (guide GGGCTGGGAGGGCCCGGAGG; chemistry not given here) [compound 5]”, for which the “% Indel Post-Editing” value was 0.3738% and 0.4065%.

Consider “6 (guide GGGAGGGCCCGGAGGGGGCT; chemistry not given here) [compound 6]”, for which the “% Indel Post-Editing” value is 0.3562% and 0.3112%.

For the substance “7 (guide GAGGGGCTGGGAGGGCCCGG; chemistry not given here) [compound 7]”, the “% Indel Post-Editing” value is 0.2257% and 0.1728%.

Take “16 (guide GGCCGCGGAAAGGAAGGGGA; chemistry not given here) [compound 16]”: the “% Indel Post-Editing” value was 0.1942% and 0.09556%.

Regarding “17 (guide GAAACTCGCGCCGCGAGGAG; chemistry not given here) [compound 17]”, the “% Indel Post-Editing” value is 0.03391% and 0.163%.

For “18 (guide GCCCCTCCCCTTCCTTTCCG; chemistry not given here) [compound 18]”, the “% Indel Post-Editing” value is 2.299% and 1.045%.

“19 (guide TGCCTGAAACTCGCGCCGCG; chemistry not given here) [compound 19]”: the “% Indel Post-Editing” value was 0.3096% and 0.2587%.

With “20 (guide GCGGGGCCGCGGAAAGGAAG; chemistry not given here) [compound 20]”, the “% Indel Post-Editing” value was 0.1376% and 0.1734%.

Regarding “21 (guide AAACTCGCGCCGCGAGGAGA; chemistry not given here) [compound 21]”, the “% Indel Post-Editing” value was 0.5362% and 0.5957%.

For “22 (guide GGCGGGGCCGCGGAAAGGAA; chemistry not given here) [compound 22]”, the “% Indel Post-Editing” value was 1.212% and 0.3044%.

In the case of “23 (guide GCCGCGGAAAGGAAGGGGAG; chemistry not given here) [compound 23]”, the “% Indel Post-Editing” value was 0.7353% and 0.8087%.

On to “24 (guide GGGCCGCGGAAAGGAAGGGG; chemistry not given here) [compound 24]”, for which the “% Indel Post-Editing” value is 0.19% and 0.2632%.

Consider “25 (guide GGAAAGGAAGGGGAGGGGCT; chemistry not given here) [compound 25]”, for which the “% Indel Post-Editing” value is 0.6945% and 1.088%.

In the case of “26 (guide GCTGCGCAGCCACTACCGCG; chemistry not given here) [compound 26]”, the “% Indel Post-Editing” value is 9.609% and 9.23%.

With “27 (guide TGGCCAGCGGCAGCACCTCG; chemistry not given here) [compound 27]”, the “% Indel Post-Editing” value was 13.61% and 13.93%.

Take “28 (guide GGGGAGCGCGCGGCATCGCG; chemistry not given here) [compound 28]”: the “% Indel Post-Editing” value was 1.175% and 1.846%.

On to “29 (guide GCTGCGCAGCAGGGAGCGCA; chemistry not given here) [compound 29]”, for which the “% Indel Post-Editing” value is 0.5165% and 0.5841%.

Consider “31 (guide CCACGTTCGTGCGGCGCCTG; chemistry not given here) [compound 31]”, for which the “% Indel Post-Editing” value was 3.555% and 3.026%.

Take “32 (guide TGCCGCTGGCCACGTTCGTG; chemistry not given here) [compound 32]”: the “% Indel Post-Editing” value was 0.1665% and 0.1061%.

As to “33 (guide CGCCGCACGAACGTGGCCAG; chemistry not given here) [compound 33]”, the “% Indel Post-Editing” value was 2.925% and 2.489%.

For the substance “34 (guide GCGGTAGTGGCTGCGCAGCA; chemistry not given here) [compound 34]”, the “% Indel Post-Editing” value was 27.04% and 29.27%.

On to “35 (guide CTACCGCGAGGTGCTGCCGC; chemistry not given here) [compound 35]”, for which the “% Indel Post-Editing” value is 1.038% and 1.547%.

“36 (guide GCGGCAGCACCTCGCGGTAG; chemistry not given here) [compound 36]”: the “% Indel Post-Editing” value was 2.113% and 1.684%.

For the substance “37 (guide GGGAGCGCACGGCTCGGCAG; chemistry not given here) [compound 37]”, the “% Indel Post-Editing” value is 5.208% and 5.478%.

Consider “38 (guide GGAGCGCACGGCTCGGCAGC; chemistry not given here) [compound 38]”, for which the “% Indel Post-Editing” value is 0.8353% and 1.797%.

As to “39 (guide GAGCGCACGGCTCGGCAGCG; chemistry not given here) [compound 39]”, the “% Indel Post-Editing” value was 6.049% and 7.137%.

Turning to “40 (guide GCTCGGCAGCGGGGAGCGCG; chemistry not given here) [compound 40]”, the “% Indel Post-Editing” value was 14.09% and 12.53%.

The data set is the same for the next values; noted with them: 5 days post-editing; Cas9 guide targeting TERT promoter or exon 1; replicates 1 and 2 listed separately.
On to “8 (guide GGGGGCTGGGCCGGGGACCC; chemistry not given here) [compound 8]”, for which the “% Indel Post-Editing” value was 0.1929% and 0.225%.

For the substance “9 (guide GGCTGGGCCGGGGACCCGGG; chemistry not given here) [compound 9]”, the “% Indel Post-Editing” value was 0.5674% and 0.398%.

Turning to “10 (guide GCTGGGCCGGGGACCCGGGA; chemistry not given here) [compound 10]”, the “% Indel Post-Editing” value is 0.3155% and 0.389%.

In the case of “11 (guide CTGGGCCGGGGACCCGGGAG; chemistry not given here) [compound 11]”, the “% Indel Post-Editing” value was 0.2288% and 0.2733%.

For the substance “12 (guide GCCGGGGACCCGGGAGGGGT; chemistry not given here) [compound 12]”, the “% Indel Post-Editing” value was 0.1682% and 0.08339%.

For “13 (guide CCGGGGACCCGGGAGGGGTC; chemistry not given here) [compound 13]”, the “% Indel Post-Editing” value is 0.06603% and 0.05525%.

Regarding “14 (guide CGCCCCGTCCCGACCCCTCC; chemistry not given here) [compound 14]”, the “% Indel Post-Editing” value was 0.04851% and 0.09263%.

Regarding “15 (guide GCCCCGTCCCGACCCCTCCC; chemistry not given here) [compound 15]”, the “% Indel Post-Editing” value was 0.375%.
